Patent publication US7604990B2, “Methods of regulating differentiation in stem cells” (ES Cell International Pte Ltd., priority 2002, dated 2009)

How the values were obtained:
Assay type in all cases: cell-based, human
[1] = tested on: ERKs (Erk1 and Erk2) in hES cells; assay: ERK phosphorylation Western blot in hES cells (Example 1); conditions: hES cells, 5 min; S1P 10 μM, LPA 50 M, PDGF 20 ng/ml
Protocol: RT-PCR for LPL receptors (A, B), PDGFR-[…] (alpha) and PDGFR-[…] (beta) (C), SPK-1 and SPK-2 (D), with (+) or without (−) RT. Immunostaining of hES cells with Hoechst 33342 (E, H), PDGFR-[…] (F) or PDGFR-[…] (I) and GCTM-2 (G, J) antibodies. S1P, LPA and PDGF stimulate ERKs phosphorylation in hES cells. (K) Western blots experiment were performed using protein lysate from hES cells. Cells were pre-treated or not with U0126 (30 μM, 1 hr) and incubated for 5 min in the absence (C, control) or presence of S1P (S, 10 μM), LPA (L, […]) or PDGF (P, 20 ng/ml). The phosphorylation of Erk1 and Erk2 (P-Erk1 and P-Erk2) was assessed by immunoblotting with a polyclonal anti-active MAP kinase as described in Materials and Methods. After a stripping procedure, the same blots were reprobed with a monoclonal anti-MAP kinase, allowed the detection of Erk1 and Erk2.
hES-3 cells plated without MEF for 24 hrs were depleted of serum for a further 18 hrs. Cells pre-treated or not with U0126 (Sigma, 30 μM, 1 hr), were incubated in the presence of the different agents for 5 min and were lysed by removal of the supernatants and addition of a reducing loading buffer containing 1 mM sodium orthovanadate (Sigma). Protein lysates (approx. 80 μg) were separated by SDS-polyacrylamide gel electrophoresis (10% polyacrylamide, w/v), transferred to nitrocellulose (Hybond-nitrocellulose, Amersham) and immunoblotting was carried out using rabbit polyclonal anti-active mitogen-activated protein (MAPK) antibodies raised against a dually phosphorylated MAPK peptide (Promega, Madison, Wis., USA). Peroxidase-coupled secondary antibody (Dako) was detected by exposure of autoradiographic films in the presence of a chemiluminescent detection reagent (ECL, Amersham). Stripping of antibodies was achieved and membranes were then reprobed with rabbit polyclonal anti-ERK1/2 antibodies (Promega), and then with peroxidase-coupled secondary antibodies (Dako). Membranes probed with either rabbit polyclonal anti-active p38 (Promega) or rabbit polyclonal anti-active JNK (Promega) antibodies were also performed, using the same procedure as described above.

hES cells [2] = assay: Spontaneous differentiation of hES colonies on MEF in serum-free medium, morphology (Example 1); conditions: 8 days serum-free on MEF; S1P 10 μM, PDGF 20 ng/ml, LPA up to 50 μM
Protocol: (A) hES cells grown with MEF, before the depletion of serum from the medium. (B, C, D, E) hES cells grown without serum after 8 days, in the absence (B) or in the presence of S1P (10 μM) (C), PDGF (20 ng/ml) (D), S1P (10 μM) plus PDGF (20 ng/ml) (E). (F) hES cells grown without serum, in the presence or in the absence (control) of S1P (10 μM), PDGF (20 ng/ml), S1P (10 μM) plus PDGF (20 ng/ml). In A-E, data are representative of at least 3 independent experiments. In F, data expressed as percentages of alkaline phosphatase activity in absence of serum for eight days (% of control), are the means±SEM of at least 2 independent experiments, each run in triplicate.
hES-3 cells were cultured as previously described^1. The serum-free culture medium consisted of DMEM (without sodium pyruvate, glucose 4500 mg/l, Invitrogen, Mount Waverley, VIC, Australia) supplemented with insulin/transferrin/selenium 1%, β-mercaptoethanol 0.1 mM, NEAA 1%, glutamine 2 mM, Hepes 25 mM, penicillin 50 U/ml and streptomycin […] (all from Invitrogen). Medium was changed every 2 days and cells were passaged every week. S1P and dihydro-S1P were obtained from Biomol (Plymouth Meeting, Pa., USA) and were dissolved in methanol. LPA was obtained from Sigma (Castle Hill, NSW, Australia) and was dissolved in ethanol. Extemporaneous dilutions of all lipids were made in water containing 0.1% fatty acid-free bovine serum albumin (BSA) (Sigma). Human PDGF-AB, PDGF-AA, PDGF-BB were from PreproTech Inc. (Rocky Hill, N.J., USA).

hES cells [3] = assay: ELISA-based GCTM-2 quantification in hES cells (Example 2); conditions: treated 2 weeks, serum-free; n=3
Protocol: (§1) hES-3 cells were cultured as previously described^1. The serum-free culture medium consisted of DMEM (without sodium pyruvate, glucose 4500 mg/l, Invitrogen, Mount Waverley, VIC, Australia) supplemented with insulin/transferrin/selenium 1%, β-mercaptoethanol 0.1 mM, NEAA 1%, glutamine 2 mM, Hepes 25 mM, penicillin 50 U/ml and streptomycin […] (all from Invitrogen). Media was changed every 2 days and cells were passaged every week S1P and dihydro-S1P were obtained from Biomol (Plymouth Meeting, Pa., USA). LPA was obtained from Sigma (Castle Hill, NSW, Australia). Extemporaneous dilutions of all lipids were made in water containing 0.1% fatty acid-free bovine serum albumin (BSA) (Sigma). S1P and dihydro-S1P were used at 10 mM. Human PDGF-AB, PDGF-AA, PDGF-BB were from Prepro Tech Inc. (Rocky Hill, N.J., USA) and were used at 20 ng/ml.
Cells were fixed in 100% ethanol and immunostained with GCTM-2 followed by alkaline phosphatase-coupled secondary antibodies (Dako). Alkaline phosphatase activity was detected by adding a solution of 4-nitrophenyl phosphate (Roche), and the concentration of the reaction product was determined by reading the optical density (OD) at 405 nm. In order to validate the technique as an accurate indicator of the proportion of GCTM-2 positive cells, standard curves were carried out with the embryonal carcinoma cell line GCT27C4, known to express GCTM-2^20.

hES cells [4] = assay: Spontaneous differentiation of hES colonies on MEF in serum-free medium, morphology (Example 2); conditions: 2 weeks serum-free on MEF; S1P 10 μM, PDGF-AB 20 ng/ml, LPA up to 50 μM
Protocol: as §1, with “S1P and dihydro-S1P were used at 10 mM.” left out

| Molecule | phosphorylation of ERKs [1] | colony growth/morphology (spontaneous differentiation) (hES cells [2]) | more GCTM2+ than the controls (hES cells [3]) [%] | size or morphology of hES cell colonies (spontaneous differentiation) (hES cells [4]) |
| --- | --- | --- | --- | --- |
| CCCCCCCCCCCCC/C=C/[C@@H](O)[C@@H](N)COP(=O)(O)O [S1P, Sphingosine-1-phosphate] | stimulated the phosphorylation of ERKs | flatter and less differentiated | 18.0±17.0 | flatter and less differentiated |
| PDGF | stimulated the phosphorylation of ERKs | flatter and less differentiated | 50.3±18.4 | flatter and less differentiated |
